Laboratory results as given in patent US8614327B2 (Vertex Pharmaceuticals Incorporated, priority 2004, dated 2013).

Target: T1, ΔF508-CFTR (Homo sapiens, UniProt P13569, DEL508-508)
T1 construct: expressed in transfected cells
Test: Membrane potential optical (FRET/VIPR) assay, identification of potentiator compounds
Assay type: cell-based
Settings: Table 3, assay not given; for % Activity: relative efficacy
Source text: I) Membrane Potential Optical Methods for Assaying ΔF508-CFTR Modulation Properties of Compounds The optical membrane potential assay utilized voltage-sensitive FRET sensors described by Gonzalez and Tsien (See, Gonzalez, J. E. and R. Y. Tsien (1995) “Voltage sensing by fluorescence resonance energy transfer in single cells” Biophys J 69(4): 1272-80, and Gonzalez, J. E. and R. Y. Tsien (1997) “Improved indicators of cell membrane potential that use fluorescence resonance energy transfer” Chem Biol 4(4): 269-77) in combination with instrumentation for measuring fluorescence changes such as the Voltage/Ion Probe Reader (VIPR) (See, […]. Oades, et al. (1999) “Cell-based assays and instrumentation for screening ion-channel targets” Drug Discov Today 4(9): 431-439). These voltage sensitive assays are based on the change in fluorescence resonant energy transfer (FRET) between the membrane-soluble, voltage-sensitive dye, DiSBAC2(3), and a fluorescent phospholipid, CC2-DMPE, which is attached to the outer leaflet of the plasma membrane and acts as a FRET donor. Changes in membrane potential (Vm) cause the negatively charged DiSBAC2(3) to redistribute across the plasma membrane and the amount of energy transfer from CC2-DMPE changes accordingly. The changes in fluorescence emission were monitored using VIPR which is an integrated liquid handler and fluorescent detector designed to conduct cell-based screens in 96- or 384-well microtiter plates. To identify potentiators of ΔF508-CFTR, a double-addition HTS assay format was developed. During the first addition, a Cl^--free medium with or without test compound was added to each well. […] (in mM) NaCl 160, KCl 4.5, CaCl2 2, MgCl2 1, HEPES 10, pH 7.4 with NaOH. • Chloride-free bath solution: Chloride salts in Bath Solution #1 are substituted with gluconate salts. • CC2-DMPE: Prepared as a 10 mM stock solution in DMSO and stored at -20° C. • DiSBAC2(3): Prepared as a 10 mM stock in DMSO and stored at -20° C. NIH3T3 mouse fibroblasts stably expressing ΔF508-CFTR are used for optical measurements of membrane potential. […] For all optical assays, the cells were seeded at 30,000/well in 384-well matrigel-coated plates and cultured for 2 hrs at 37° C. before culturing at 27° C. for 24 hrs. for the potentiator assay.

T1 sequence (P13569 with tags, fused parts or gaps DEL508-508): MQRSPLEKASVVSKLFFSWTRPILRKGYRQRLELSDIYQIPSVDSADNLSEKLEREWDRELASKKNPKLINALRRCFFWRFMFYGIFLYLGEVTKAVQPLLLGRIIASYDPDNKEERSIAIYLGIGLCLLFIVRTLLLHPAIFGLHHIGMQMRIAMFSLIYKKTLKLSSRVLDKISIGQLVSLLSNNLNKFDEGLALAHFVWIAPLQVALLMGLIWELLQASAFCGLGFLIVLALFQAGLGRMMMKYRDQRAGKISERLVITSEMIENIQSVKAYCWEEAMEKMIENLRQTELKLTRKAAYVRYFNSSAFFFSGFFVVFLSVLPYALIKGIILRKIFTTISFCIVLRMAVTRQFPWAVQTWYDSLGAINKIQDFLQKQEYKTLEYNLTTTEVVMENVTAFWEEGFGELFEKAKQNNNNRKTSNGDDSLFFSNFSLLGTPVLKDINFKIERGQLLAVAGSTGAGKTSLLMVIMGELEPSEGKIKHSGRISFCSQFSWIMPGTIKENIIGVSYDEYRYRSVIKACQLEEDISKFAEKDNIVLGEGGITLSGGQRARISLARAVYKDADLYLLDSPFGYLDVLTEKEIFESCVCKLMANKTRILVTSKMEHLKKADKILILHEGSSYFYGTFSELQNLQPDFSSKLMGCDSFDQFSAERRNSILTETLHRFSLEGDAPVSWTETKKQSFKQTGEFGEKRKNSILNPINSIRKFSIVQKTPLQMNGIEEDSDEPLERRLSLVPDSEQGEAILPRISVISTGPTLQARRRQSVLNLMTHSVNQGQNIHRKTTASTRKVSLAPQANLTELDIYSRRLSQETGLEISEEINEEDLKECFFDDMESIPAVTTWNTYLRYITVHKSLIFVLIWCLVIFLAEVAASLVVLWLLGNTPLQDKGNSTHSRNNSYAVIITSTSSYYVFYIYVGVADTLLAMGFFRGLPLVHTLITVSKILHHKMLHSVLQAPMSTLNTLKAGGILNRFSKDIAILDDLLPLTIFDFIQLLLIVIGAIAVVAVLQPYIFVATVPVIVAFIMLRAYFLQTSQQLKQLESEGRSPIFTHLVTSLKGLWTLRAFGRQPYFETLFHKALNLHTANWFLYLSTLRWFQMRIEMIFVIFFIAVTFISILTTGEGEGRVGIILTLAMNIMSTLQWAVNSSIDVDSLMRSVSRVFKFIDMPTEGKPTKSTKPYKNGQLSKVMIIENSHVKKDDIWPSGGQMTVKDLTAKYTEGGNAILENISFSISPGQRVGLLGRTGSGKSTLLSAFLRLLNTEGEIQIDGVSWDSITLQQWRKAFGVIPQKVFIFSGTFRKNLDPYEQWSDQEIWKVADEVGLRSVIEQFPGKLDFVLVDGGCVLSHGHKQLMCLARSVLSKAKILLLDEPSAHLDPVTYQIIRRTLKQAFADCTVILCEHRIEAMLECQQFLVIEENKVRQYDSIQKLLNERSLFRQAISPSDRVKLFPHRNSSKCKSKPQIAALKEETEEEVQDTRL

EC50	% Activity	SMILES
< 10 µM	++ (between 25% to 100%)	O=C(Nc1ccccc1-c1cccc(OC(F)(F)F)c1)c1c[nH]c2ccccc2c1=O [Compound 253, 4-oxo-N-[2-[3-(trifluoromethoxy)phenyl]phenyl]-1H-quinoline-3-carboxamide]
	++ (between 25% to 100%)	CCCc1ccc(N)cc1NC(=O)c1c[nH]c2ccccc2c1=O [Compound 41, N-(5-amino-2-propyl-phenyl)-4-oxo-1H-quinoline-3-carboxamide]
< 10 µM	++ (between 25% to 100%)	O=C(Nc1cc2[nH]ccc2cc1C(F)(F)F)c1c[nH]c2ccccc2c1=O [Compound 234, 4-oxo-N-[5-(trifluoromethyl)-1H-indol-6-yl]-1H-quinoline-3-carboxamide]
< 10 µM	++ (between 25% to 100%)	O=C(Nc1cccc(SC(F)(F)F)c1)c1c[nH]c2ccccc2c1=O [Compound 456, 4-oxo-N-[3-(trifluoromethylsulfanyl)phenyl]-1H-quinoline-3-carboxamide]
< 10 µM	++ (between 25% to 100%)	O=C(Nc1ccc(Oc2ccccc2)cc1)c1c[nH]c2ccccc2c1=O [Compound 267, 4-oxo-N-(4-phenoxyphenyl)-1H-quinoline-3-carboxamide]
< 10 µM	++ (between 25% to 100%)	O=C(Nc1ccccc1Oc1ccccc1)c1c[nH]c2ccccc2c1=O [Compound 413, 4-oxo-N-(2-phenoxyphenyl)-1H-quinoline-3-carboxamide]
< 10 µM	++ (between 25% to 100%)	CCOC(=O)c1c(NC(=O)c2c[nH]c3ccccc3c2=O)ccc2cc[nH]c12 [Compound 412, 6-[(4-oxo-1H-quinolin-3-yl)carbonylamino]-1H-indole-7-carboxylic acid ethyl ester]
< 10 µM	++ (between 25% to 100%)	Cc1cccc(-c2ccccc2NC(=O)c2c[nH]c3ccccc3c2=O)c1C [Compound 401, N-[2-(2,3-dimethylphenyl)phenyl]-4-oxo-1H-quinoline-3-carboxamide]
	++ (between 25% to 100%)	Cc1cc(-c2ccccc2NC(=O)c2c[nH]c3ccccc3c2=O)ccc1F [Compound 79, N-[2-(4-fluoro-3-methyl-phenyl)phenyl]-4-oxo-1H-quinoline-3-carboxamide]
< 10 µM	++ (between 25% to 100%)	CC(C)(C)c1ccc(NC(=O)c2c[nH]c3cccc(O)c3c2=O)cc1F [Compound 491, N-(3-fluoro-4-tert-butyl-phenyl)-5-hydroxy-4-oxo-1H-quinoline-3-carboxamide]
< 10 µM	++ (between 25% to 100%)	CCOc1ccc2ncc(C(=O)Nc3ccc4cc[nH]c4c3)c(O)c2c1 [Compound 112, 6-ethoxy-4-hydroxy-N-(1H-indol-6-yl)quinoline-3-carboxamide]
< 10 µM	++ (between 25% to 100%)	COC(=O)Oc1c(NC(=O)c2c[nH]c3ccccc3c2=O)cc(F)cc1C(C)(C)C [Compound 288, N-(5-fluoro-2-methoxycarbonyloxy-3-tert-butyl-phenyl)-4-oxo-1H-quinoline-3-carboxamide]
< 10 µM	++ (between 25% to 100%)	Cc1ccc2c(=O)c(C(=O)Nc3ccc(N4CCC[C@@H]4C)cc3C(F)(F)F)c[nH]c2c1 [Compound 607, (S)-7-methyl-N-(4-(2-methylpyrrolidin-1-yl)-2-(trifluoromethyl)phenyl)-4-oxo-1,4-dihydroquinoline-3-carboxamide]
< 10 µM	++ (between 25% to 100%)	CCCc1ccc(NC(=O)OC)cc1NC(=O)c1c[nH]c2ccccc2c1=O [Compound 471, [3-[(4-oxo-1H-quinoline-3-yl)carbonylamino]-4-propyl-phenyl]aminoformic acid methyl ester]
< 10 µM	++ (between 25% to 100%)	CC(C)(C)OC(=O)Nc1ccc(C(C)(C)C)c(NC(=O)c2c[nH]c3ccccc3c2=O)c1 [Compound 353, [3-[(4-oxo-1H-quinolin-3-yl)carbonylamino]-4-tert-butyl-phenyl]aminoformic acid tert-butyl ester]
	++ (between 25% to 100%)	CC(C)c1ccc(NC(=O)c2c[nH]c3ccc(F)cc3c2=O)cc1O [Compound 597, 6-fluoro-N-(3-hydroxy-4-isopropyl-phenyl)-4-oxo-1H-quinoline-3-carboxamide]

EC50	% Activity	SMILES
< 10 µM	+ (<25%)	Cc1cccc2c(=O)c(C(=O)Nc3cc(O)c(C(C)(C)C)cc3F)c[nH]c12 [Compound 625, N-(2-fluoro-5-hydroxy-4-tert-butyl-phenyl)-8-methyl-4-oxo-1H-quinoline-3-carboxamide]
< 10 µM	++ (between 25% to 100%)	O=C(Nc1ccccc1-c1ccccc1OC(F)(F)F)c1c[nH]c2ccccc2c1=O [Compound 156, 4-oxo-N-[2-[2-(trifluoromethoxy)phenyl]phenyl]-1H-quinoline-3-carboxamide]
< 10 µM	++ (between 25% to 100%)	C[C@H]1CCCN1c1ccc(NC(=O)c2c[nH]c3ccc(F)cc3c2=O)c(C(F)(F)F)c1 [Compound 714, (S)-6-fluoro-N-(4-(2-methylpyrrolidin-1-yl)-2-(trifluoromethyl)phenyl)-4-oxo-1,4-dihydroquinoline-3-carboxamide]
< 10 µM	++ (between 25% to 100%)	CC(=O)n1ccc2ccc(NC(=O)c3c[nH]c4ccccc4c3=O)cc21 [Compound 187, N-(1-acetyl-1H-indol-6-yl)-4-oxo-1H-quinoline-3-carboxamide]
< 10 µM	++ (between 25% to 100%)	N#Cc1cc(N2CCCC2)ccc1NC(=O)c1c[nH]c2ccccc2c1=O [Compound 622, N-(2-cyano-4-pyrrolidin-1-yl-phenyl)-4-oxo-1H-quinoline-3-carboxamide]
< 10 µM	++ (between 25% to 100%)	CCCc1ccc(NC)cc1NC(=O)c1c[nH]c2ccccc2c1=O [Compound 356, N-(5-methylamino-2-propyl-phenyl)-4-oxo-1H-quinoline-3-carboxamide]
< 10 µM	+++ (>100%)	O=C(Nc1cc(O)c(C2CCCCC2)cc1C(F)(F)F)c1c[nH]c2ccccc2c1=O [Compound 619, N-[4-cyclohexyl-5-hydroxy-2-(trifluoromethyl)phenyl]-4-oxo-1H-quinoline-3-carboxamide]
10 to 25 µM	+++ (>100%)	CCC1(c2ccc(NC(=O)c3c[nH]c4ccccc4c3=O)cc2)CCC(=O)NC1=O (centres unmarked) [Compound 57, N-[4-(3-ethyl-2,6-dioxo-3-piperidyl)phenyl]-4-oxo-1H-quinoline-3-carboxamide]
25 to 60 µM	+ (<25%)	O=C(Nc1ccc(Cl)cn1)c1c[nH]c2ccccc2c1=O [Compound 170, N-(5-chloro-2-pyridyl)-4-oxo-1H-quinoline-3-carboxamide]
< 10 µM	+++ (>100%)	CC(C)(C)OC(=O)[C@H]1CCCN1c1ccc(NC(=O)c2c[nH]c3ccccc3c2=O)c(C(F)(F)F)c1 [Compound 540, (R)-tert-butyl 1-(4-(4-oxo-1,4-dihydroquinoline-3-carboxamido)-3-(trifluoromethyl)phenyl)pyrrolidine-2-carboxylate]
< 10 µM	++ (between 25% to 100%)	CCCc1ccc(NC(=O)c2c[nH]c3ccccc3c2=O)cc1N [Compound 160, N-(3-amino-4-propyl-phenyl)-4-oxo-1H-quinoline-3-carboxamide]
< 10 µM	++ (between 25% to 100%)	CC(C)(C)c1cc2cc[nH]c2cc1NC(=O)c1c[nH]c2cc(C#N)ccc2c1=O [Compound 558, 7-cyano-4-oxo-N-(5-tert-butyl-1H-indol-6-yl)-1H-quinoline-3-carboxamide]
< 10 µM	++ (between 25% to 100%)	O=C(Nc1ccc(C(F)(F)F)cc1Cl)c1c[nH]c2ccccc2c1=O [Compound 532, N-[2-chloro-4-(trifluoromethyl)phenyl]-4-oxo-1H-quinoline-3-carboxamide]
< 10 µM	++ (between 25% to 100%)	CC(C)c1ccc(NC(=O)c2c[nH]c3ccc(F)cc3c2=O)c(C(F)(F)F)c1 [Compound 557, 6-fluoro-N-[4-isopropyl-2-(trifluoromethyl)phenyl]-4-oxo-1H-quinoline-3-carboxamide]
25 to 60 µM	+ (<25%)	NS(=O)(=O)c1ccccc1NC(=O)c1c[nH]c2ccccc2c1=O [Compound 78, 4-oxo-N-(2-sulfamoylphenyl)-1H-quinoline-3-carboxamide]
